Here are results for 6 compounds from patent EP0059009A1, “Pharmaceutical compositions containing quinoline derivatives as active component, a method for the preparation of such compositions, new quinoline derivatives and a method for the preparation thereof” (ACF Chemiefarma N.V., priority 1981, dated 1982).

For one test, the system named is guinea pigs. In words: Guinea pigs electrostimulation test (arrhythmias induced by electrostimulation of the right ventricle). Format: in vivo. The following applies: for Percent increase in voltage (%) required for arrhythmia: given intraduodenally 30 min before stimulation, anaesthetised guinea pigs, treated vs control animals. On the procedure: Arrhythmias are induced in guinea pigs by electro- stimulation of the right ventricle of the heart. The animals are anaesthesized with urethane (1.2 g/kg i.p.) and artificially respirated before a needle electrode is inserted in the right venticle of the heart. Substances are given intraduodinally 30 min. before the stimulation at a standard dose of 32 mg/kg.
The voltage needed for induction of extra systoles in control animals (n = 6) is compared with that required for induction of arrhythmias in treated animals (n = 6).
-This method is based on the work of L. Szekeres and G.J. Papp, Naunyn-Schmiedebergs Arch. Exp. Path. Pharmak., 245, 70 (1963).

The next test has as its system malaria. As to conditions: reported by Ainly and King, Proc. Roy. Soc. (London) B 125, 49 (1938); cited from earlier work.

The structures appear in SMILES notation.

`CCC1CNCCC1CC(O)Cc1ccnc2ccc(OC)cc12` (stereo not drawn) [Reference com-pound of formula 6a, reference compound]: in the test with guinea pigs (Dose 16 mg/kg), the “Percent increase in voltage (%) required for arrhythmia” value worked out at 0%. The “anti-arrhythmic screen using the electro-stimulation test” value with guinea pigs (result in words, dose not given) is “inactive”.

As to `C=CC1CNCCC1CCC(O)c1ccnc2ccccc12` (stereo not drawn) [III], the “Percent increase in voltage (%) required for arrhythmia” value with guinea pigs (Dose 32 mg/kg) came out at 35%.

With `CCC1CNCCC1CCC(O)c1ccnc2ccc(OCCC(C)C)cc12` (stereo not drawn) [VII], the “Percent increase in voltage (%) required for arrhythmia” value in the test with guinea pigs (Dose 23.5 mg/kg) turned out to be 85%.

For `C=CC1CNCCC1CCC(O)c1ccnc2ccc(OC)cc12` (stereo not drawn) [I, Quinicinol-l.bifumarate], the results for the “Percent increase in voltage (%) required for arrhythmia” value in the test on guinea pigs (Dose 16 mg/kg) and in the test with guinea pigs (Dose 32 mg/kg) were 25% and 114%, respectively.

Turning to `CCC1CNCCC1CCC(O)c1ccnc2ccc(OC)cc12` (stereo not drawn) [II], the “Percent increase in voltage (%) required for arrhythmia” value in the test on guinea pigs (Dose 16 mg/kg) came to 33.9%; in the test with guinea pigs (Dose 32 mg/kg), 176%.

Turning to `CCC1CNCCC1CCC(O)c1ccnc2ccc(OC)cc12` (stereo not drawn) [dihydroquiniconol, dihydroquinicinol], in the test on malaria, the anti-malaria activity result was “did not show anti-malaria activity”.
